Experimental data as given in US20120035247A1, “RNA Interference Mediated Inhibition of Signal Transducer and Activator of Transcription 6 (STAT6) Gene Expression Using Short Interfering Nucleic Acid (siNA)” (Merck Sharp & Dohme Corp., priority 2009, published 2012).
[invAb] = inverted abasic unit; m = 2'-O-methyl; r = 2'-OH (RNA); f = 2'-fluoro

Experiments:
STAT6 mRNA [1] = assay: STAT6 siNA screen and dose response in human A549 cells, STAT6 mRNA by quantitative RT-PCR (Taqman); type: cell-based; conditions: for % KD STAT6 mRNA 10 nM / IC50: Table 4, human A549 cells; for % KD STAT6 mRNA 10 nM / IC50 / % KD STAT6: mean ± S.D.; for % KD STAT6 10 nM: Table 5, A549 cells, three experiments, mean ± standard deviation; for % KD STAT6: human A549 cells, 10 nM siNA, 24 hrs, normalized to GAPDH and non-targeting control, n = 3
Outline: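 A549 cells were transfected with siNA–RNAiMax complexes at a final 10 nM siNA and incubated 24 h without a medium change. STAT6 mRNA was measured by TaqMan qRT-PCR on cell lysates. Knock-down was calculated by the comparative Ct (ΔΔCt) method against the non-targeting control siNA, with relative expression taken as 2^−ΔΔCt.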

STAT6 mRNA [2] = assay: STAT6 siNA screen in mouse NIH 3T3 cells, STAT6 mRNA by quantitative RT-PCR (Taqman); type: cell-based; conditions: mouse NIH3T3 cells, 10 nM siNA, 24 hrs, normalized to GAPDH and non-targeting control, n = 2
Outline: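 NIH 3T3 cells, 5000/well, transfected after 24 h with siNA (10 nM final) via RNAiMax and harvested 24 h later. STAT6 mRNA quantified by TaqMan RT-qPCR with GAPDH; knock-down by comparative Ct (2^−ΔΔCt) against non-targeting control siNA.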

[3] = tested on: human STAT4 mRNA transcript; assay: STAT4 specificity screen in human A549 cells, STAT4 mRNA by quantitative RT-PCR; type: cell-based; conditions: three experiments, mean ± standard deviation
Experimental: A549 (human; ATCC cat# CCL-185): Cells were cultured at 37° C. in the presence of 5% CO2 and grown in Ham's F12K medium with 2 mM L-glutamine adjusted to contain 1.5 g/L sodium bicarbonate and supplemented with fetal bovine serum at a final concentration of 10%, 100 μg/mL of streptomycin, and 100 U/mL penicillin.
A series of probes and primers were used to detect the various mRNA transcripts of the genes of 13-Actin (human cell line only), and of STATE and GAPDH in mouse and human cell lines. All Taqman probes and primers for the experiments here-in described were supplied as pre-validated sets by Applied Biosystems, Inc. (see Table 2).
The assays were performed on an ABI 7900 instrument, according to the manufacturer's instructions. A TaqMan Gene Expression Master Mix (provided in the Cells-to-CTT™, Applied Biosystems, Cat #4399002) was used. The PCR reactions were carried out at 50° C. for 2 min, 95° C. for 20 min followed by 40 cycles at 95° C. for 15 secs and 60° C. for 1 min.
The expression level of the gene of interest and % knock-down was calculated using Comparative Ct method:
ΔΔCt=ΔCt(Target siNA)−ΔCt(NTC)
Relative expression level=2^−ΔΔCt
The non-targeting control siNA was, unless otherwise indicated, chosen as the value against which to calculate the % knock-down, because it is the most relevant control.
The siNAs from Table 4 were tested in human A549 cell line at a lower concentration (1 nM versus the original screening concentration of 10 nM) to determine the effect of the STATE siRNAs on the mRNA transcript of human STAT4.

eosinophilia and AHR = conditions: rat model of allergic disease; cited from earlier work
mouse spleen T cells = conditions: in vitro; cited from earlier work

In the case of “29999-DC: STAT6 siNA duplex; sense SEQ ID NO: 62, antisense SEQ ID NO: 63; target GUUCGAUUCCUGUUGGGCU, site 1148 (sense GUUCGAUUCCUGUUGGGCUTT; antisense AGCCCAACAGGAAUCGAACUU; sense: DNA at AGT, 2'-fluoro at CU, [invAb] at 5' end, 3' end, backbone not given here; antisense: sugars from the 5' end rrrffmmfmmmmmffmmmfmm, backbone not given here) [STAT6 siNA duplex; target GUUCGAUUCCUGUUGGGCU, site 1148]”, the “% KD STAT6 mRNA 10 nM” value (STAT6 mRNA [1]) is reported as 72.8 ± 1^ %, the IC50 (STAT6 mRNA [1]) is reported as 48.7 ± 21.7 pM and the “% KD STAT6 10 nM” value (STAT6 mRNA [1]) is reported as 72.8 ± 1.0%. For the same compound, the “% KD STAT6” value (STAT6 mRNA [1]) was 72.8 ± 1%, the “% KD STAT6” value (STAT6 mRNA [2]) was 53.4 ± 3.1% and the “% KD STAT4 1 nM” value [3] was −17.4 ± 20.9%.
With “30005-DC: STAT6 siNA duplex; sense SEQ ID NO: 74, antisense SEQ ID NO: 75; target CUGCACAGCUUGAUAGAAA, site 755 (sense CUGCACAGCUUGAUAGAAATT; antisense UUUCUAUCAAGCUGUGCAGUU; sense: DNA at AGT, 2'-fluoro at CU, [invAb] at 5' end, 3' end, backbone not given here; antisense: sugars from the 5' end rrrffmffmmmffmfmfmmmm, backbone not given here) [STAT6 siNA duplex; target CUGCACAGCUUGAUAGAAA, site 755]” the “% KD STAT6 mRNA 10 nM” value (STAT6 mRNA [1]) was 70 ± 8.9%, the IC50 (STAT6 mRNA [1]) was 23.2 ± 10.3 pM and the “% KD STAT6 10 nM” value (STAT6 mRNA [1]) was 70.0 ± 8.9%. The “% KD STAT6” value (STAT6 mRNA [1]) was 70 ± 8.9%, the “% KD STAT6” value (STAT6 mRNA [2]) was −8 ± 0.5% and the “% KD STAT4 1 nM” value [3] was 13.2 ± 14.4%.
For “30026-DC: STAT6 siNA duplex; sense SEQ ID NO: 116, antisense SEQ ID NO: 117; target GCAGUGGUUUGAUGGUGUC, site 1816 (sense GCAGUGGUUUGAUGGUGUCTT; antisense GACACCAUCAAACCACUGCUU; sense: DNA at AGT, 2'-fluoro at CU, [invAb] at 5' end, 3' end, backbone not given here; antisense: sugars from the 5' end rrrmffmffmmmffmffmfmm, backbone not given here) [STAT6 siNA duplex; target GCAGUGGUUUGAUGGUGUC, site 1816]”, the “% KD STAT6” value (STAT6 mRNA [1]) was 58.4 ± 8.1% and the “% KD STAT6” value (STAT6 mRNA [2]) was 59.8 ± 1.1%.
With “30027-DC: STAT6 siNA duplex; sense SEQ ID NO: 118, antisense SEQ ID NO: 119; target AAGACCCGGGCAUCGCUGA, site 1025 (sense AAGACCCGGGCAUCGCUGATT; antisense UCAGCGAUGCCCGGGUCUUUU; sense: DNA at AGT, 2'-fluoro at CU, [invAb] at 5' end, 3' end, backbone not given here; antisense: sugars from the 5' end rrrmfmmfmfffmmmffffmm, backbone not given here) [STAT6 siNA duplex; target …UCGCUGA, site 1025]” the “% KD STAT6” value (STAT6 mRNA [1]) was −0.8 ± 12.4% and the “% KD STAT6” value (STAT6 mRNA [2]) was −3.3 ± 3.1%.
With “30028-DC: STAT6 siNA duplex; sense SEQ ID NO: 120, antisense SEQ ID NO: 121; target CUGCCAAAGACCUGUCCAU, site 2049 (sense CUGCCAAAGACCUGUCCAUTT; antisense AUGGACAGGUCUUUGGCAGUU; sense: DNA at AGT, 2'-fluoro at CU, [invAb] at 5' end, 3' end, backbone not given here; antisense: sugars from the 5' end rrrmmfmmmfffffmmfmmmm, backbone not given here) [STAT6 siNA duplex; target CU…UGUCCAU, site 2049]” the “% KD STAT6” value (STAT6 mRNA [1]) was 29.5 ± 6.4% and the “% KD STAT6” value (STAT6 mRNA [2]) was 31.1 ± 4.3%.
With “30029-DC: STAT6 siNA duplex; sense SEQ ID NO: 122, antisense SEQ ID NO: 123; target GUGUCCUGGACCUCACCAA, site 1830 (sense GUGUCCUGGACCUCACCAATT; antisense UUGGUGAGGUCCAGGACACUU; sense: DNA at AGT, 2'-fluoro at CU, [invAb] at 5' end, 3' end, backbone not given here; antisense: sugars from the 5' end rrrmfmmmmfffmmmmfmfmm, backbone not given here) [STAT6 siNA duplex; target GUGUCCUGGACCUCACCAA, site 1830]” the “% KD STAT6” value (STAT6 mRNA [1]) was 13.2 ± 7.8% and the “% KD STAT6” value (STAT6 mRNA [2]) was −17.5 ± 12.8%.
For `NC(=O)c1cnc(Nc2ccc(N3CCOCC3)cc2)nc1NCc1c(F)ccc(F)c1F` [YM341619], the AHR (eosinophilia and AHR) is listed as “inhibited”, the eosinophilia (eosinophilia and AHR) is listed as “inhibited” and the “differentiation of mouse spleen T cells into the Th2 phenotype” value (mouse spleen T cells) is listed as “inhibited”.
